pKi: −log10 of the molar value. ≈ marks a conversion by molar mass, not a printed value.
Tests used:
[1] = Aqueous solubility of the compound by HPLC-UV/MS analysis; assay type: physicochemical; conditions: water (aqueous)
[2] = Apparent permeability of compound in phosphate buffer by PAMPA assay; assay type: ADME
[3] = Metabolic stability in human liver microsomes assessed as parent compound remaining in the presence of NADPH generating system by HPLC-UVMS analysis; assay type: ADME, Microsome
Chitotriosidase-1 [4] = biological target: T1, Chitotriosidase-1 (Homo sapiens, UniProt Q13231); assay: Inhibition of human CHIT1 using 4-methylumbelliferyl-beta-D-N,N',N''-triacetylchitotriose as substrate assessed as substrate hydrolysis by measuring inhibition constant preincubated with compound for 20 mins and measured immediately after substrate addition by fluorescence based assay relative to control
Target sequence in this assay (Q13231 whole entry): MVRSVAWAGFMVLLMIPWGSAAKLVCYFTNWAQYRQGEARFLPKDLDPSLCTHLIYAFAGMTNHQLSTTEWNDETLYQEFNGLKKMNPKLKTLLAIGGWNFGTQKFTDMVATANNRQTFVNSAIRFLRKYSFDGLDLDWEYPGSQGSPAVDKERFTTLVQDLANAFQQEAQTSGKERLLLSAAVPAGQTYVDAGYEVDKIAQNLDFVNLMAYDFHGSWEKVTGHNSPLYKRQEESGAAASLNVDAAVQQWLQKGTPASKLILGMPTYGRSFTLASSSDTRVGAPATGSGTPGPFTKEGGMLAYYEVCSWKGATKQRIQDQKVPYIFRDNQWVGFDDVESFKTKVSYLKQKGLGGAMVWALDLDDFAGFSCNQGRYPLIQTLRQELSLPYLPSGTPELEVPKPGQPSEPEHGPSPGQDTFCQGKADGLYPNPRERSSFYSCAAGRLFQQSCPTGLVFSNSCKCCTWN

Candida = assay: Antifungal activity against Candida spp.; assay type: functional
[5] = biological target: Acidic mammalian chitinase (Homo sapiens, UniProt Q9BZP6); assay: Inhibition of human AMCase using 4-methylumbelliferyl-beta-D-N,N',N''-triacetylchitotriose as substrate assessed as substrate hydrolysis by measuring inhibition constant preincubated with compound for 20 mins and measured immediately after substrate addition by fluorescence based assay
Acidic mammalian chitinase, sequence (Q9BZP6 whole entry): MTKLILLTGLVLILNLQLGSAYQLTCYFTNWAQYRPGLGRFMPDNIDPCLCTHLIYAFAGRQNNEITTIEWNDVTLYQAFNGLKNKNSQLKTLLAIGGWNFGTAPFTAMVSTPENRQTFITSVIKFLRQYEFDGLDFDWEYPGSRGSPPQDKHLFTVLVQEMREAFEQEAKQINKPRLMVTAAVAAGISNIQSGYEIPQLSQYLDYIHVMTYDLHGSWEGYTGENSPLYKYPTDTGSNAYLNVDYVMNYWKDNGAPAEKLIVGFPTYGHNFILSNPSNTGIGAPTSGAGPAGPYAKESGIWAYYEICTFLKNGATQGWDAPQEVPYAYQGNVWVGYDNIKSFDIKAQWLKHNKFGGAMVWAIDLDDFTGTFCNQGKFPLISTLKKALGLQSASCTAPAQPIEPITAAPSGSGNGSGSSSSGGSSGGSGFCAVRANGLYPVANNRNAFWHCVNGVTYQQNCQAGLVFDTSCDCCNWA

Chitotriosidase-1 [6] = biological target: T1, Chitotriosidase-1; assay: Inhibition of human CHIT1 using 4-methylumbelliferyl-beta-D-N,N',N''-triacetylchitotriose as substrate assessed as substrate hydrolysis at 10 uM preincubated with compound for 20 mins and measured immediately after substrate addition by fluorescence based assay relative to control
Target sequence in this assay (Q13231 22-466 limits assumed): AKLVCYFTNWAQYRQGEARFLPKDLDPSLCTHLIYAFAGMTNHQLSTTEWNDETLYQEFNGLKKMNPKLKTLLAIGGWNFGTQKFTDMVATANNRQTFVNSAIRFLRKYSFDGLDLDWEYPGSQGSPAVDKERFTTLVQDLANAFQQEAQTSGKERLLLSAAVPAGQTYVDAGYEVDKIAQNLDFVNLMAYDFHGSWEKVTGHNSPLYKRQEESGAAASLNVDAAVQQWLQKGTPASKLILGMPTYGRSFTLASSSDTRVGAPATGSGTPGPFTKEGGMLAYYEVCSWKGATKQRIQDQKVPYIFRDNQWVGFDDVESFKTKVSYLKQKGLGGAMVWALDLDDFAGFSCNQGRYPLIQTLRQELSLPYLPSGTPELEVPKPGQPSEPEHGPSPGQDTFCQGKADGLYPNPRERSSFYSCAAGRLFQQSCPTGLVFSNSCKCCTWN

CNC(=O)NC(=N)NCCCCCCCCN1CCCc2ccccc2COc2ccc(OC)cc2CNC(=N)NC1=O
solubility [1]: 3080 µg/mL (≈ 5.17 mM) | Papp [2]: < 0.5 ×10⁻⁶ cm/s | Stability [3]: 98.7%

CNC(=S)NC(=N)NCCCCCCCCN1CCCCCCOc2ccccc2CNC(=N)NC1=O
pKi (Chitotriosidase-1 [4]): < 4.30

C/C=C/CNC(=N)NCCCCCCCCN1CCCCCCCCNC(=N)NC1=O
MIC (Candida): 1 µg/mL (≈ 0.0023 mM)

CNC(=O)NC(=N)NCCCCCCCCN1CCCc2ccc(OC(F)(F)F)cc2COc2ccccc2CNC(=N)NC1=O
pKi [5]: < 4.30

C/C=C/CNC(=N)NCCCCCCCCN1CCCCCCOc2ccccc2CNC(=N)NC1=O
MIC (Candida): 1 µg/mL (≈ 0.00195 mM)

CNC(=O)NC(=N)NCCCCCCCCN1CCCCCCCCNC(=N)NC1=O
pKi (Chitotriosidase-1 [4]): < 4.30

CNC(=O)NC(=N)NCCCCCCCCN1CCCc2ccccc2COc2cc(C)ccc2CNC(=N)NC1=O
pKi (Chitotriosidase-1 [4]): < 4.30

CNC(=O)NC(=N)NCCCCCCCCN1CCCc2ccccc2COc2ccccc2CNC(=N)NC1=O
solubility [1]: 2010 µg/mL (≈ 3.57 mM) | Papp [2]: < 0.5 ×10⁻⁶ cm/s | Stability [3]: 76.2%

CNC(=O)NC(=N)NCCCCCCCCN1CCCc2ccc(F)cc2COc2ccccc2CNC(=N)NC1=O
solubility [1]: 2850 µg/mL (≈ 4.9 mM) | Papp [2]: < 0.5 ×10⁻⁶ cm/s | Stability [3]: 98.5%

CNC(=O)NC(=N)NCCCCCCCCN1CCCc2cc(Cl)ccc2COc2ccccc2CNC(=N)NC1=O
solubility [1]: 23100 µg/mL (≈ 38.6 mM) | Papp [2]: < 0.5 ×10⁻⁶ cm/s | Stability [3]: 91.5%

CNC(=O)NC(=N)NCCCCCCCCN1CCCCCOc2ccccc2CNC(=N)NC1=O
solubility [1]: 1810 µg/mL (≈ 3.6 mM) | Papp [2]: < 0.5 ×10⁻⁶ cm/s | Stability [3]: 80.9%

CNC(=O)NC(=N)NCCCCCCCCN1CCCc2ccccc2COc2cc(Cl)ccc2CNC(=N)NC1=O
pKi (Chitotriosidase-1 [4]): < 4.30

C/C=C/CNC(=N)NCCCCCCCCN1CCCc2ccccc2COc2ccccc2CNC(=N)NC1=O
MIC (Candida): 1 µg/mL (≈ 0.00178 mM)

Cn1cnc2c1c(=O)n(CCCn1c(=O)c3nc[nH]c3n(C)c1=O)c(=O)n2C
pKi [5]: 6.59 | pKi (Chitotriosidase-1 [4]): 8.85 | inhibition (Chitotriosidase-1 [6]): 98%

From ChEMBL document CHEMBL5252667, “Discovery and Optimization of a Novel Macrocyclic Amidinourea Series Active as Acidic Mammalian Chitinase Inhibitors” (ACS Med Chem Lett, 2023)
